For six compounds, MIC results are on record in DBAASP.

Among the test systems are Candida krusei PMC 0610; Candida krusei PMC 0624; Escherichia coli 078; Escherichia coli 987P; Escherichia coli K88; Escherichia coli K99; Escherichia coli UB1005.
Test in all cases: ≥ marks a high value that may be exact or a test limit, other limits are often not marked, values filed in µg/mL are converted to µM
In test [1] the test system is Aspergillus brasiliensis DSM 1988.
In test [2] the test system is Aspergillus niger PMC 7101.
The test system of test [3] is Aspergillus terreus PMC 7201.
The test system of test [4] is Candida albicans ATCC 10231.
Test [5] deals with Candida albicans ATCC 24433.
The subject of test [6] is Candida glabrata PMC 0805.
Test [7] deals with Candida parapsilosis DSM 11224.
The subject of test [8] is Candida parapsilosis PMC 0711.
In test [9] the test system is Candida tropicalis DSM 11953.
Test [10] has as its system Corynebacterium jeikeium ATCC BAA-949.
The subject of test [11] is Cryptococcus neoformans DSM 11759.
For test [12], the system named is Microsporum canis DSM 10708.
Test [13] has as its system Trichophyton mentagrophytes DSM 4870.
The subject of test [14] is Trichophyton mentagrophytes PMC 6528.
The subject of test [15] is Trichophyton mentagrophytes PMC 6529.
For test [16], the system named is Trichophyton mentagrophytes PMC 6530.
In test [17] the test system is Clavibacter michiganensis subsp. michiganensis MAFF 301254.
In test [18] the test system is Pyricularia oryzae MAFF 101511.
Test [19] has as its system Xanthomonas oryzae pv. oryzae MAFF 311018.
For test [20], the system named is Candida albicans NCYC 1467.
For test [21], the system named is Enterococcus faecalis NCTC 12697.
Test [22] concerns Escherichia coli NCTC 10418.
Test [23] deals with Klebsiella pneumoniae ATCC 43816.
Test [24] concerns Pseudomonas aeruginosa ATCC 27853.
In test [25] the test system is Staphylococcus aureus NCTC 10788.
The test system of test [26] is Staphylococcus aureus NCTC 12493.
Test [27] deals with Acinetobacter baumannii BCRC 14B0100.
Test [28] relates to Klebsiella pneumoniae E406-17.
Test [29] has as its system Pseudomonas aeruginosa E411-17.
For test [30], the system named is Staphylococcus aureus M838-17.
In test [31] the test system is Lacticaseibacillus rhamnosus 1.0385.
Test [32] concerns Lacticaseibacillus rhamnosus 1.0386.
Test [33] deals with Lacticaseibacillus rhamnosus 1.0911.
Test [34] concerns Lacticaseibacillus rhamnosus 1.9205.
In test [35] the test system is Lacticaseibacillus rhamnosus 7469.
Test [36] relates to Lactiplantibacillus plantarum 8014.
Test [37] concerns Salmonella enterica subsp. enterica serovar Typhimurium C77-31.
Test [38] concerns Staphylococcus aureus ATCC 25923.
In test [39] the test system is Staphylococcus aureus ATCC 29213.
Test [40] deals with Staphylococcus epidermidis ATCC 12228.
Test [41] has as its system Streptococcus agalactiae ATCC 13813.

Values after ≈ are worked out from the molar mass of the structure shown. Values joined by “and” are separate entries in the source; they are usually repeats but may differ in a detail not shown here. Equal values may be shown once.

As to `CC[C@H](C)[C@H](NC(=O)CNC(=O)[C@H](CC(N)=O)NC(=O)[C@H](CC(C)C)NC(=O)[C@@H](NC(=O)[C@H](CCCN=C(N)N)NC(=O)CNC(=O)[C@@H](NC(=O)[C@@H](NC(=O)[C@@H]1CCCN1C(=O)[C@H](Cc1ccccc1)NC(=O)[C@@H](N)Cc1ccccc1)C(C)C)[C@@H](C)CC)[C@@H](C)CC)C(=O)N[C@@H](CC(C)C)C(N)=O` [FFPVIGRILNGIL], the MIC in [1] was ≥ 128 µM; in [2] it was ≥ 128 µM; in test [3], ≥ 128 µM; in [4], 16 µM and 21.3 µM; in test [5], ≥ 32 µM; in [6] it was ≥ 64 µM. For the same compound, the MIC was ≥ 128 µM against Candida krusei PMC 0610; ≥ 32 µM with Candida krusei PMC 0624; ≥ 128 µM in [7]; ≥ 128 µM in test [8]; 16 µM (≈ 23.3 µg/mL) in test [9]; 16 µM (≈ 23.3 µg/mL) in test [10]. Also, the MIC was ≥ 32 µM in test [11]; ≥ 64 µM in test [12]; 16 µM (≈ 23.3 µg/mL) in test [13]; ≥ 32 µM in test [14]; ≥ 32 µM in test [15]; ≥ 64 µM in [16].
For `CC[C@H](C)[C@H](NC(=O)[C@@H](N)Cc1ccccc1)C(=O)N[C@@H](Cc1ccccc1)C(=O)N[C@@H](CC(C)C)C(=O)N1CCC[C@H]1C(=O)N[C@H](C(=O)N[C@@H](Cc1ccccc1)C(=O)N[C@@H](CCCN=C(N)N)C(=O)N[C@@H](CCCN=C(N)N)C(=O)N1CCC[C@H]1C(=O)N[C@H](C(=O)N[C@@H](CO)C(N)=O)C(C)C)[C@@H](C)CC` [FIFLPIFRRPVS], the MIC in [17] was 10.7 µM (≈ 16 µg/mL); in test [18] it was ≥ 85.8 µM; in test [19] it was ≥ 85.8 µM.
For the compound `CC[C@H](C)[C@@H]1NC(=O)[C@H](C)NC(=O)[C@@H](NC(=O)[C@H](Cc2ccccc2)NC(=O)[C@@H](NC(=O)[C@H](CCCCN)NC(=O)[C@H](Cc2c[nH]c3ccccc23)NC(=O)[C@@H]2CCCN2C(=O)[C@H](Cc2c[nH]c3ccccc23)NC(=O)[C@H](Cc2ccccc2)NC(=O)[C@@H](N)CCCCN)[C@@H](C)CC)CSSC[C@@H](C(=O)O)NC(=O)[C@H](CCCCN)NC(=O)[C@H](CCCCN)NC(=O)[C@H]([C@@H](C)O)NC1=O` [KFWPWKIFCAITKKC], the MIC in test [20] was 8 µM (≈ 15.2 µg/mL); in [21] it was ≥ 256 µM; in [22] it was 16 µM (≈ 30.4 µg/mL); in [23], ≥ 32 µM; in test [24], 64 µM (≈ 121 µg/mL); in test [25], 8 µM (≈ 15.2 µg/mL). Besides, the MIC in [26] came out at 8 µM (≈ 15.2 µg/mL).
As for `CC[C@H](C)[C@H](NC(=O)[C@H](CCCN=C(N)N)NC(=O)[C@H](CCC(N)=O)NC(=O)[C@@H](NC(=O)[C@@H](NC(=O)[C@H](CCCN=C(N)N)NC(=O)[C@H](CCCCN)NC(C)=O)[C@@H](C)CC)C(C)C)C(=O)N[C@@H](CCCCN)C(=O)N[C@@H](CC(=O)O)C(=O)N[C@@H](Cc1ccccc1)C(=O)N[C@@H](CC(C)C)C(=O)N[C@@H](CCCN=C(N)N)C(=O)N[C@@H](C)C(=O)NCC(=O)N1CCC[C@H]1C(=O)N[C@H](C(=O)N[C@@H](CCCCN)C(=O)N[C@@H](CC(=O)O)C(=O)N[C@@H](Cc1ccccc1)C(=O)N[C@@H](CC(C)C)C(=O)N[C@@H](CCCN=C(N)N)C(N)=O)[C@@H](C)CC` [KRIVQRIKDFLRAGPIKDFLR], the MIC in test [27] was 0.778 µM and 0.389 µM.
In the case of `C[C@H](NC(=O)[C@H](Cc1c[nH]c2ccccc12)NC(=O)[C@H](Cc1c[nH]c2ccccc12)NC(=O)[C@H](Cc1c[nH]c2ccccc12)NC(=O)[C@H](Cc1c[nH]c2ccccc12)NC(=O)[C@H](CCCN=C(N)N)NC(=O)[C@H](CCCN=C(N)N)NC(=O)[C@@H](N)CCCN=C(N)N)C(N)=O` [RRRWWWWA], the MIC in [28] is ≥ 50 µM; in test [29], 25 µM (≈ 32.5 µg/mL); in test [30] it was 12.5 µM (≈ 16.3 µg/mL).
With `CC[C@H](C)[C@H](NC(=O)[C@H](CCCCN)NC(=O)[C@@H](NC(=O)[C@@H](N)Cc1c[nH]c2ccccc12)[C@@H](C)CC)C(=O)N[C@@H](Cc1c[nH]c2ccccc12)C(=O)N[C@@H](CCCCN)C(=O)N[C@@H](CCCCN)C(=O)N[C@H](C(=O)N[C@H](C(=O)N[C@@H](CCCCN)C(=O)N[C@@H](CCCCN)C(=O)N[C@@H](Cc1c[nH]c2ccccc12)C(=O)N[C@@H](CCCCN)C(=O)N[C@@H](CCCCN)C(=O)O)[C@@H](C)CC)[C@@H](C)CC` [WIKIWKKIIKKWKK], the MIC in the test on Escherichia coli 078 is 16 µM (≈ 30.8 µg/mL); with Escherichia coli 987P it was 2 µM (≈ 3.85 µg/mL); against Escherichia coli K88, 8 µM (≈ 15.4 µg/mL); in the test on Escherichia coli K99, 4 µM (≈ 7.71 µg/mL); in the test on Escherichia coli UB1005, 8 µM (≈ 15.4 µg/mL); in test [31], ≥ 128 µM. Further, the MIC in [32] is ≥ 128 µM; in test [33], ≥ 128 µM; in test [34], ≥ 128 µM; in [35], ≥ 128 µM; in test [36], ≥ 128 µM; in test [24] it was 4 µM (≈ 7.71 µg/mL). For the same compound, the MIC in [37] is ≥ 128 µM; in test [38], 8 µM (≈ 15.4 µg/mL); in test [39] it was 4 µM (≈ 7.71 µg/mL); in [40], 4 µM (≈ 7.71 µg/mL); in test [41] it was 8 µM (≈ 15.4 µg/mL).
